Laboratory results as given in patent US10722530B2, “Methods of diagnosing and treating cancer” (CASE WESTERN RESERVE UNIVERSITY, priority 2016, dated 2020).

What was measured:
H1299 = test: Clonogenic survival assay; assay type: cell-based; conditions: Homo sapiens, NCI-H1299; H1299 (p53 null), 24 h treatment, colonies after at least 10 days
Experimental: (§1) Cancer cells (200-300 cells/well) were seeded in 6-well culture dishes and allowed to adhere overnight. For 5-FdU, cells were treated for 24 h, then gently washed with PBS, and incubated with fresh media for at least 10 days to allow individual colonies to form. […] After 10-18 days, the plates were stained with methylene blue. Colonies containing ≥50 cells were counted. The percentage of survival was determined relative to untreated control averaged over 3 independent experiments.

DLD1 cells [1] = test: DNA fiber assay (replication fork progression); assay type: cell-based, human; conditions: 100 nM 5-FdU 24 h; for reduction of mean fiber length: vs untreated
Experimental: DNA fiber analysis was performed as described by Han et al. (J. Biol. (2015) 290:12370-8). Cells treated with 100 nM 5-FdU for 24 h were pulse-labeled with 100 μM chlorodeoxyuridine (CIdU) for 20 minutes, washed with PBS, and 25 μM Iododeoxyuridine (IdU) for 20 minutes. Cells were collected in PBS, and 2.5 μL of cell suspension was dropped on glass slide. 7.5 μL of lysis buffer (0.5% SDS, 200 mM Tris-HCl pH 7.4, 50 mM EDTA) was dropped on the cell suspension and lysis for 10 minutes. Slides were then tilted at 15° to spread the suspension and placed horizontally to allow air-dry. After drying, slides were fixed in 3:1 methanol:acetic acid for 15 minutes, washed with water, and placed at −20° C. overnight. Slides were then treated with 2.5 M HCl for 1 h, washed with PBS containing 0.1% Tween-20, washed twice with PBS, blocked in PBS containing 5% BSA and 0.1% Tween 20 for 20 minutes, and rinsed with PBS three times. After washing, 100 μL primary antibodies: mouse anti-BrdU/IdU (Becton Dickinson, 1:100) and rat anti-BrdU/CIdU (AbD Serotec, 1:400) diluted in PBS containing 5% BSA and 0.1% were added to incubate in a humid chamber for 4-6 h. After incubation, slides were washed with PBS three times, incubated with secondary fluorescent antibodies: sheep anti-mouse Alexa Fluor 488 (Life technologies) and donkey anti-rat Alexa Fluor 594 (Life technologies) diluted in PBS containing 5% BSA for 1 h. Slides were washed with PBS three times and mounted with Vectashield mounting medium. Image acquisition was performed on a Leica laser microscope. DNA fiber length was measured by using ImageJ software (NCl/NIH).

DLD1 cells [2] = test: Cell cycle and BrdU/PI labeling analysis; assay type: cell-based, human; conditions: for cell cycle progression (PI staining): 100 nM 5-FdU; for cell cycle profile (BrdU and PI co-staining): 100 nM 5-FdU 24 h
Experimental: For cell cycle analysis, DLD1 cells were synchronize by serum starvation for 48 h and released in fresh media for 16 h. The cells were then treated with 100 nM 5-FdU for 4, 8, 12, 20, 24, 28, 32, 36, 48, 72, and 96 h. At each time point, cells were harvested and fixed with methanol. Fixed cells were incubated with DNase-free RNaseA (Roche) and stained with 50 μg/mL PI solution (Sigma-Aldrich). For BrdU/PI labeling analysis, cells were treated with 100 nM 5-FdU for 24 h and pulsed with 10 μM BrdU (BD Biosciences Pharmingen, BrdU Flow Kit) for 45 minutes before collecting cells. According to manufacturer's instructions from BD Biosciences Pharmingen, cells were fixed, treated with DNAse for 1 h at 37° C., stained with FITC anti-BrdU for 20 minutes, and incubated with PI staining solution (50 μg/mL PI, 10 mM Tris-HCl pH 7.5, 5 mM MgCl2, 10 μg/mL DNase-free RNaseA) for 30 minutes at 37° C. For both assays, cells were analyzed on a BD LSRII instrument.

HCT116 p53 WT cells = conditions: HCT116 p53 WT, shUDG vs shSCR
Description: p53 or UDG knockdown was achieved via shRNA transduction. Lentiviral vectors LV-THM-shp53 (which also expresses a GFP reporter) or LV-Bleo-shp53 to perform p53 KD in WT HCT116 cells were obtained from Case Western Reserve University, Cleveland, Ohio Lentiviral vector targeting GFP (sh-GFP) was used as control. UDG shRNA vectors (shUDG: NM_003362.2-656s21c1, shUDG-2: NM_003362.2-758s21c1, and shUDG-3: NM_003362.2-893s21c1) were purchased from Sigma, and a scramble targeting shRNA vector (Sigma) was used as paired control. The lentiviral production and infection were performed as previously described. Cells stably infected with LV-THM-p53 were isolated by cell sorting on the basis of their GFP expression.
as §1

DLD1 cells [3] = test: LC-MS/MS of uracil and 5-FU incorporated in cellular DNA; conditions: 5-FdU 100 and 200 nM 48 h
Experimental: Genomic DNA was extracted from cells treated with 5-FdU via phenol-chloroform mixture. 80 μg of DNA sample was dissolved in 1×UDG reaction buffer (20 mM Tris-HCl, 1 mM EDTA and 1 mM dithiothreitol, pH 8.0) and incubated with UDG enzyme (1 μL, 5 units) for 1 h at 37° C. For LC-MS/MS analysis of DNA-incorporated uracil and 5-FU, 75 μL of the enzyme reaction mixture was obtained, and uracil-1,3-^15N2 was used as the internal standard (Sigma-Aldrich). All uracil and 5-FU standards, internal standard, and QC samples were prepared in 1×UDG reaction buffer. […] Quantitation of the analytes was accomplished by a AB Sciex API 3200 triple quadrupole tandem mass spectrometer (AB Sciex), which was operated in the negative multiple-reaction-monitoring (MRM) mode with mass transitions of m/z 110.8>42.0 for uracil, m/z 112.9>43.0 for uracil-1,3-^15N2 and m/z 129.0>42.0 for 5-FU. This method has lower limits of quantitation of 2.50 ng/mL and linear calibration ranges up to 500 ng/mL for both uracil and 5-FU with a sample injection volume of 15 μL, as well as a total analysis time of 6 min.

In the case of `O=c1[nH]c(=O)n([C@H]2C[C@H](O)[C@@H](CO)O2)cc1F` [5-FdU, 5-fluorodeoxyuridine], the IC50 (H1299) is reported as 269.6 ± 0.73 nM, the “mean fiber length of nascent DNA strands” value (DLD1 cells [1]; UDG depleted cells) is reported as 2.8 μm and the “reduction of mean fiber length” value (DLD1 cells [1]; UDG depleted cells) is reported as 63%. For the same compound, the “mean fiber length of nascent DNA strands” value (DLD1 cells [1]; shSCR-transfected cells) was 5.7 μm, the “reduction of mean fiber length” value (DLD1 cells [1]; shSCR-transfected cells) was 23% and the “cell cycle progression (PI staining)” value (DLD1 cells [2]; synchronized DLD1 UDG depleted, late G1 and early S phase, lasted 48 h) was “strong cell cycle arrest”. The “cell cycle progression (PI staining)” value (DLD1 cells [2]; synchronized DLD1 shSCR, through S phase by 36 h) was “slowed the progression”, the “cell cycle profile (BrdU and PI co-staining)” value (DLD1 cells [2]; unsynchronized DLD1 shSCR) was “S phase arrest especially at middle and late S phase” and the “cell cycle profile (BrdU and PI co-staining)” value (DLD1 cells [2]; unsynchronized DLD1 shUDG) was “arrested at late G1 and early S phase”. The “effect of UDG depletion on cytotoxicity” value (HCT116 p53 WT cells) was “did not significantly affect”, the “released uracil and 5-FU from genomic DNA” value (DLD1 cells [3]; shSCR-transfected cells) was “Very low levels” and the “released uracil and 5-FU from genomic DNA” value (DLD1 cells [3]; shUDG-transfected cells) was “significant increase”.
